Molecules are shown by their SMILES. Active and inactive are the calls of the source. No cut-off for these calls is given here.

Test [1] concerns BV-2. As to the kind of experiment: cells. The test is classed as functional, cell-based. The conditions noted are these: Mus musculus, BV-2, 24 h.
Description: Cytotoxicity against mouse BV-2 cells assessed as reduction in cell viability measured after 24 hrs by MTT assay
A further test relates to HT-22. The test can be described thus: cells. It counts as functional, cell-based. The conditions noted are these: Mus musculus, HT-22, 24 h.
Test [2] deals with Acetylcholinesterase (Electrophorus electricus, UniProt O42275). As to the kind of experiment: Inhibition of electric eel AChE using acetylthiocholine iodide as substrate preincubated for 10 mins followed by substrate addition and measured for 15 mins by Ellman's method.
Sequence of Acetylcholinesterase (Electrophorus electricus, UniProt O42275) (O42275 whole entry): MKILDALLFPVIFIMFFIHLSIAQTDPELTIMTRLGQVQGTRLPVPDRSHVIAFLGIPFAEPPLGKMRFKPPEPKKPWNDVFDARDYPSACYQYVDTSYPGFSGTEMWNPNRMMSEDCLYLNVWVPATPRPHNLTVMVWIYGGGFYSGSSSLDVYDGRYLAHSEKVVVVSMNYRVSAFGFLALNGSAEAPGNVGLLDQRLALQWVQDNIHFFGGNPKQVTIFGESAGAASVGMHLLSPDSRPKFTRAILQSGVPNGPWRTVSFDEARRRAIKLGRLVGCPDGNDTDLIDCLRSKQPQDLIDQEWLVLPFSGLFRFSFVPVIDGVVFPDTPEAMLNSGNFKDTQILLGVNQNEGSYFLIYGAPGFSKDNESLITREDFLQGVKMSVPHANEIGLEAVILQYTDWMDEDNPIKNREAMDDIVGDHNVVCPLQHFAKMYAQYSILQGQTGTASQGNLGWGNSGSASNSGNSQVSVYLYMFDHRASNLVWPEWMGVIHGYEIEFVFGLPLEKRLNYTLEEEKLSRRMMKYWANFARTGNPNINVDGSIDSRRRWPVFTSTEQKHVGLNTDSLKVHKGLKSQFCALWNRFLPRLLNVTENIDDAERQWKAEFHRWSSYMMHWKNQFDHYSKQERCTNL
For test [3], the target named is Cholinesterase (Equus caballus, UniProt P81908). As to the kind of experiment: Inhibition of equine serum BChE using butyrylthiocholine iodide as substrate preincubated for 10 mins followed by substrate addition and measured after 15 mins by Ellman's method.
Sequence of Cholinesterase (Equus caballus, UniProt P81908) (P81908 whole entry): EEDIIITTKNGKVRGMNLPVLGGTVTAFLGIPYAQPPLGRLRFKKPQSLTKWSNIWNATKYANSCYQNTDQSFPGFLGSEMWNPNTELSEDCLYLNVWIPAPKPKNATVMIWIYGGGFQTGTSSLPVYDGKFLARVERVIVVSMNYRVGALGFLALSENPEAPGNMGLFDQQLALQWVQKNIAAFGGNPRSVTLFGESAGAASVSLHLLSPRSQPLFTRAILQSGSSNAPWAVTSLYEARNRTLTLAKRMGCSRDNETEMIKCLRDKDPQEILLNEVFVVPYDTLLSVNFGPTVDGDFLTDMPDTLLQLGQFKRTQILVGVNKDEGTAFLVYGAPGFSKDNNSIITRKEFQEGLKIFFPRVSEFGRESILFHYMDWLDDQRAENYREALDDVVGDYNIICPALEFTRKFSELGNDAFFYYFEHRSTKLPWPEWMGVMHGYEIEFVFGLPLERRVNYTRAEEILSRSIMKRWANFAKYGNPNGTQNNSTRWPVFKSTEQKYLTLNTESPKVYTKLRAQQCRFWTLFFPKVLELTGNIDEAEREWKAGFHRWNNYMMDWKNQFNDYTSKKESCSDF
The target in test [4] is Acetylcholinesterase (Homo sapiens, UniProt P22303). The test can be described thus: Inhibition of AChE (unknown origin).
Sequence of Acetylcholinesterase (Homo sapiens, UniProt P22303) (P22303 whole entry): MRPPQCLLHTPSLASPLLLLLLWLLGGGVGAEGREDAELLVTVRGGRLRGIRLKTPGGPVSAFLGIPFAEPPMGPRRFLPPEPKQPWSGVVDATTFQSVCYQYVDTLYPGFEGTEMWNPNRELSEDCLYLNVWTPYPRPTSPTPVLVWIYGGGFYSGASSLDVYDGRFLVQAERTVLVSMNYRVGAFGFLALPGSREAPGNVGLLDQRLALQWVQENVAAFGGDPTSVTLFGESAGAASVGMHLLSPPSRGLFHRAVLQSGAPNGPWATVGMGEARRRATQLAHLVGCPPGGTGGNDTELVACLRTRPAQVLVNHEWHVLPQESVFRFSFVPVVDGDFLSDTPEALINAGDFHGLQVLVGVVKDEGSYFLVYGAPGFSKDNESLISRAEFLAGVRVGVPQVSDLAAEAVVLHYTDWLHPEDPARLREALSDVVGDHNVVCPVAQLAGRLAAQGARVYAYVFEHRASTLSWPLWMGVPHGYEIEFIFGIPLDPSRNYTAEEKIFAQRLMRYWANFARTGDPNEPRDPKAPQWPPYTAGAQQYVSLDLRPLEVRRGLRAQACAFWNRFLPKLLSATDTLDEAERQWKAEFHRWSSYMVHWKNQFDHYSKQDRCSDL
Test [5] addresses Cholinesterase (Homo sapiens, UniProt P06276). As to the kind of experiment: Inhibition of BuChE (unknown origin).
For test [6], the target named is Amyloid-beta precursor protein (Homo sapiens) (UniProt P05067). As to the kind of experiment: Inhibition of amyloid beta (1 to 42 ) (unknown origin) aggregation at 20 umol/L incubated for 24 hrs by thioflavin-T fluorescence method relative to control. Particulars: dose 20.0 µmol/L.
Sequence of Amyloid-beta precursor protein (Homo sapiens) (P05067 whole entry): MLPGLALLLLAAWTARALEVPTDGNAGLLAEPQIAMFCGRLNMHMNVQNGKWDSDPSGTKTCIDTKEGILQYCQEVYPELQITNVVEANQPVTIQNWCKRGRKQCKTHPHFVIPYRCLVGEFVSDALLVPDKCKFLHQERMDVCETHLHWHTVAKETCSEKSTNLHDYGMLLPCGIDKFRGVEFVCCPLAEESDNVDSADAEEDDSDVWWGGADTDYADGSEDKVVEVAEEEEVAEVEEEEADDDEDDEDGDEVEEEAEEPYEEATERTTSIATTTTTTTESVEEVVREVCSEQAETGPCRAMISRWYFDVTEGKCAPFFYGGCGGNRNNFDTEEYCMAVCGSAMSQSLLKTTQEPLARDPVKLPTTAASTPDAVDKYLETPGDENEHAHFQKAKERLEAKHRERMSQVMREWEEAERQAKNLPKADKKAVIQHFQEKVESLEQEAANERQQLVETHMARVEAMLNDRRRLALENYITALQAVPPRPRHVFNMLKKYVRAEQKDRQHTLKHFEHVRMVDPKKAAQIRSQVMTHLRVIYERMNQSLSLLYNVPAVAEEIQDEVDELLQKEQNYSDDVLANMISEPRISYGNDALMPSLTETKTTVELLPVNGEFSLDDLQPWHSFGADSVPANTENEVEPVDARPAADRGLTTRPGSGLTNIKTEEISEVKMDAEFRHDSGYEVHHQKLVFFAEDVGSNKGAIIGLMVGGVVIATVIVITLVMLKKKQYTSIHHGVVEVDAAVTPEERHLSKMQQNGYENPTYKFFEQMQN
For test [7], the system named is BV-2. The test can be described thus: Anti-neuroinflammation in mouse BV-2 cells assessed as decrease in LPS-induced IL-6 production at 12.5 umol/L measured after 24 hrs by ELISA. Particulars: dose 12.5 µmol/L. It counts as functional, cell-based. On the technique in general: An ELISA detects its analyte on a solid surface through an enzyme-linked reagent.
The test system of test [8] is BV-2. The test can be described thus: Anti-neuroinflammation in mouse BV-2 cells assessed as decrease in LPS-induced TNF-alpha production at 12.5 umol/L measured after 24 hrs by ELISA. It counts as functional, cell-based. The conditions noted are these: dose 12.5 µmol/L.
For test [9], the system named is Mus musculus. The test can be described thus: Anti-alzheimer activity against scopolamine-induced cognitive dysfunction mouse model assessed as […] of AChE activity in hippocampus at 50 to 100 mg/kg, po dosed for 10 days by colorimetric analysis. The test is classed as functional, organism-based. Particulars: dose 50-100 mg/kg, time 10.0 day.
For test [10], the system named is BV-2. As to the kind of experiment: Anti-neuroinflammation in mouse BV-2 cells assessed as decrease in LPS-induced iNOS activity at 12.5 umol/L by fluorescence based assay. It counts as functional, cell-based. Particulars: dose 12.5 µmol/L.
For test [11], the system named is Mus musculus. As to the kind of experiment: Anti-alzheimer activity against scopolamine-induced cognitive dysfunction mouse model assessed as change in neuron damage in hippocampal CA3 region at 50 to 100 mg/kg, po measured after 10 days by Nissl staining based assay. It counts as functional, organism-based. Particulars: Hippocampus, dose 50-100 mg/kg, time 10.0 day.

The test system of test [12] is BV-2. As to the kind of experiment: Anti-neuroinflammation in mouse BV-2 cells assessed as inhibition of LPS-induced NO production at 100 to 3.125 umol/L measured after 24 hrs by Griess method. Particulars: dose 100-3.125 µmol/L. The test is classed as functional, cell-based.
Test [13] relates to Mus musculus. The test can be described thus: Anti-alzheimer activity against scopolamine-induced cognitive dysfunction mouse model assessed as change in neuron damage in hippocampal CA1 region at 50 to 100 mg/kg, po measured after 10 days by Nissl staining based assay. Particulars: Hippocampus, dose 50-100 mg/kg, time 10.0 day. It counts as functional, organism-based.
Test [14] concerns Mus musculus. The test can be described thus: Anti-alzheimer activity against scopolamine-induced cognitive dysfunction mouse model assessed as change in neuron damage in hippocampal CA3 region at 5 mg/kg, po measured after 10 days by Nissl staining based assay. It counts as functional, organism-based. Particulars: time 10.0 day.
Test [15] has as its system Mus musculus. The test can be described thus: Anti-alzheimer activity against scopolamine-induced cognitive dysfunction mouse model assessed as […] of AChE activity in hippocampus at 5 mg/kg, po measured after 10 days by colorimetric analysis. It counts as functional, organism-based. The conditions noted are these: time 10.0 day.
Test [16] relates to Mus musculus. The test can be described thus: Anti-alzheimer activity against scopolamine-induced cognitive dysfunction mouse model assessed as change in neuron damage in hippocampal CA1 region at 5 mg/kg, po measured after 10 days by Nissl staining based assay. It counts as functional, organism-based. Particulars: time 10.0 day.
Test [17] deals with BV-2. The test can be described thus: Anti-neuroinflammation in mouse BV-2 cells assessed as decrease in LPS-induced TNF-alpha production at 1.25 umol/L measured after 24 hrs by ELISA. The conditions noted are these: dose 1.25 µmol/L. The test is classed as functional, cell-based.
The test system of test [18] is BV-2. As to the kind of experiment: Anti-neuroinflammation in mouse BV-2 cells assessed as decrease in LPS-induced iNOS activity at 1.25 umol/L by fluorescence based assay. The test is classed as functional, cell-based. Particulars: dose 1.25 µmol/L.
Test [19] relates to BV-2. The test can be described thus: Anti-neuroinflammation in mouse BV-2 cells assessed as decrease in LPS-induced IL-6 production at 1.25 umol/L measured after 24 hrs by ELISA. It counts as functional, cell-based. The conditions noted are these: dose 1.25 µmol/L.

Sequence of Cholinesterase (Homo sapiens, UniProt P06276) (P06276 whole entry): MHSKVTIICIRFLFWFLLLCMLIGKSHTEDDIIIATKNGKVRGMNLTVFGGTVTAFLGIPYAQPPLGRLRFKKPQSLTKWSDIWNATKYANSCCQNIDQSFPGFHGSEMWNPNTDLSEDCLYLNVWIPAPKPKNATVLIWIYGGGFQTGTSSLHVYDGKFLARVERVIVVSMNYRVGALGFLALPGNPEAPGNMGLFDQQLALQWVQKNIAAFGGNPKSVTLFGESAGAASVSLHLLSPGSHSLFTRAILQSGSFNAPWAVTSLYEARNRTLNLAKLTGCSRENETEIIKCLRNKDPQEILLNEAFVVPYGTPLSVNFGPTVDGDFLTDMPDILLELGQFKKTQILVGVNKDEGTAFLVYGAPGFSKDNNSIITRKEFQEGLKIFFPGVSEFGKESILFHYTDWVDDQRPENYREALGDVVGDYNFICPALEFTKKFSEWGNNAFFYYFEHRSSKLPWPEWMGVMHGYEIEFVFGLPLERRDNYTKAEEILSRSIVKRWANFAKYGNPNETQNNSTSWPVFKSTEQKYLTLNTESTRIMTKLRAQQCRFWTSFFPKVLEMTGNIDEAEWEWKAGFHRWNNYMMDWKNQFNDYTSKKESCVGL
Description for HT-22: Cytotoxicity against mouse HT-22 cells assessed as reduction in cell viability measured after 24 hrs by MTT assay

A word on the IC50: it is the concentration needed to halve the response being measured. In the case of `O=C(NCCc1c[nH]c2ccccc12)c1ccccc1OC(=O)N(Cc1ccccc1)Cc1ccccc1`, the IC50 in the test on BV-2 [1] was 137 µM; in the test with HT-22, greater than 100 µM; on Acetylcholinesterase [2] it was greater than 100 µM; on Cholinesterase [3], 15.4 µM.

Turning to `O=C(NCCc1c[nH]c2ccccc12)c1ccccc1OC(=O)N1CCCCCC1`, the IC50 is 32.7 µM in the test on BV-2 [1], 25.1 µM in the test with HT-22, greater than 100 µM on Acetylcholinesterase [2] and 24.1 µM on Cholinesterase [3].

Regarding `O=C(NCCc1c[nH]c2ccccc12)c1ccccc1OC(=O)N1CCCC1`, the IC50 was 56 µM with BV-2 [1], 64.3 µM with HT-22, greater than 100 µM against Acetylcholinesterase [2] and 1.2 µM against Cholinesterase [3].

In the case of `O=C(NCCc1c[nH]c2ccccc12)c1ccccc1OC(=O)N1CCOCC1`, the IC50 in the test on BV-2 [1] was 82.8 µM; with HT-22 it was 97.7 µM; at Acetylcholinesterase [2], greater than 100 µM; at Cholinesterase [3], 10 µM.

Turning to `CCCN(CCC)C(=O)Oc1ccccc1C(=O)NCCc1c[nH]c2ccccc12`, the half-maximal inhibitory concentration (IC50) in the test on BV-2 [1] was 0.33 µM; in the test with HT-22, 25.4 µM; on Acetylcholinesterase [2], 37.2 µM; on Cholinesterase [3], 35.8 µM.

On to `CON(C)C(=O)Oc1cccc(C(=O)NCCc2c[nH]c3ccccc23)c1`, for which the IC50 in the test with BV-2 [1] was 12.4 µM; with HT-22 it was 48.3 µM; at Acetylcholinesterase [2], greater than 100 µM; at Cholinesterase [3], 1.27 µM.

Turning to `CNC(=O)Oc1ccc2c(c1)[C@]1(C)CCOC1N2C` (stereo partly specified), 0.004 µM corresponded to half-maximal inhibition at Acetylcholinesterase [4] (IC50).

With `O=C(NCCc1c[nH]c2ccccc12)c1ccccc1OC(=O)N1CCc2ccccc21`, the IC50 in the test on BV-2 [1] was 137 µM; in the test on HT-22, greater than 100 µM; at Acetylcholinesterase [2], greater than 100 µM; at Cholinesterase [3], 30 µM.

`CN(C(=O)Oc1ccccc1C(=O)NCCc1c[nH]c2ccccc12)c1ccccc1`: the IC50 is 20.6 µM with BV-2 [1], 48.5 µM in the test on HT-22, greater than 100 µM against Acetylcholinesterase [2] and 29.7 µM at Cholinesterase [3].

Turning to `O=C(NCCc1c[nH]c2ccccc12)c1ccccc1OC(=O)N(c1ccccc1)c1ccccc1`, the IC50 in the test on BV-2 [1] is 126 µM; with HT-22, greater than 100 µM; at Acetylcholinesterase [2], greater than 100 µM; against Cholinesterase [3], 4.73 µM.

`O=C(NCCc1c[nH]c2ccccc12)c1ccccc1OC(=O)N1CCSCC1`: the IC50 in the test with BV-2 [1] was 1.53 µM; in the test with HT-22, greater than 100 µM; against Acetylcholinesterase [2], greater than 100 µM; against Cholinesterase [3], 1.44 µM.

The compound `CC(C)c1ccc(NC(=O)Oc2ccc3c(c2)[C@]2(C)CCOC2O3)cc1` (stereo partly specified) came in with an IC50 against Cholinesterase [5] of 0.027 µM.

As to `CCN(CC)C(=O)Oc1ccccc1C(=O)NCCc1c[nH]c2ccccc12`, the IC50 was found to be 32.1 µM with BV-2 [1], 57.2 µM with HT-22, 68.5 µM at Acetylcholinesterase [2] and 14 µM against Cholinesterase [3].

As for `O=C(NCCc1c[nH]c2ccccc12)c1ccccc1OC(=O)N1CCC1`, the 50% inhibitory concentration (IC50) in the test on BV-2 [1] is 33.3 µM; with HT-22, 40.1 µM; at Acetylcholinesterase [2], greater than 100 µM; at Cholinesterase [3], 17 µM.

As a reminder, the inhibition is the share of the control response that was lost under treatment. As to `O=S1(=O)OC(c2ccc(O)cc2)(c2ccc(O)cc2)c2ccccc21`, the inhibition in test [6] worked out at 34.8%.

Take `O=C(NCCc1c[nH]c2ccccc12)c1ccccc1OC(=O)N1CCCCC1`: the IC50 in the test with BV-2 [1] is 32.8 µM; in the test on HT-22, 24.4 µM; on Acetylcholinesterase [2] it was greater than 100 µM; against Cholinesterase [3], greater than 100 µM.

For `CN1c2ccc(OC(=O)NCC3CCCCC3)cc2[C@]2(C)CCN(CCc3ccccc3)[C@H]12`, the IC50 at Cholinesterase [5] and against Acetylcholinesterase [4] was 0.0018 µM each time.

Regarding `CCCCN(CCCC)C(=O)Oc1ccccc1C(=O)NCCc1c[nH]c2ccccc12`, the IC50 in the test with BV-2 [1] turned out to be 116 µM; with HT-22 it was 12.8 µM; on Acetylcholinesterase [2], 34.9 µM; against Cholinesterase [3], 8.01 µM.

For the compound `CCNC(=O)Oc1ccc2c(c1)[C@]1(C)CCOC1O2` (stereo partly specified), the IC50 at Cholinesterase [5] and against Acetylcholinesterase [4] was 0.006 µM throughout.

For `O=C(NCCc1c[nH]c2ccccc12)c1ccccc1O`, the IC50 turned out to be 26.8 µM in the test with BV-2 [1], 101 µM with HT-22, 23.2 µM against Acetylcholinesterase [2] and 15.9 µM on Cholinesterase [3]. In test [6], this compound registered an inhibition of 19.6%. For the same compound, the result in the test on BV-2 [7], with BV-2 [8], in the test on Mus musculus [9], in the test on BV-2 [10], with Mus musculus [11] and with BV-2 [12] was Active. The outcome with Mus musculus [13] was Active.

With `CN(C)C(=O)Oc1ccccc1C(=O)NCCc1c[nH]c2ccccc12`, the half-maximal inhibitory concentration (IC50) was 35.2 µM in the test on BV-2 [1], 75.4 µM in the test with HT-22, 16.7 µM against Acetylcholinesterase [2] and 3.95 µM against Cholinesterase [3].

With `CN1CC[C@@]2(C)c3cc(OC(=O)Nc4ccccc4)ccc3N(C)[C@@H]12` [PHENSERINE], the half-inhibitory concentration (IC50) at Acetylcholinesterase [4] amounted to 1.56 µM.

Regarding `CON(C)C(=O)Oc1ccc(C(=O)NCCc2c[nH]c3ccccc23)cc1`, the IC50 is 30.3 µM in the test on BV-2 [1], greater than 100 µM in the test on HT-22, 3.11 µM against Acetylcholinesterase [2] and 6.61 µM against Cholinesterase [3].

Turning to `COc1cc2c(cc1OC)C(=O)C(CC1CCN(Cc3ccccc3)CC1)C2` (stereo unspecified) [DONEPEZIL], the outcome with Mus musculus [14], with Mus musculus [15], in the test with Mus musculus [16], in the test with BV-2 [17], in the test on BV-2 [18] and in the test on BV-2 [19] was Active. The IC50 with BV-2 [1] turned out to be 1.54 µM; with HT-22, 56.4 µM.

For the compound `CN1CCN(C(=O)Oc2ccccc2C(=O)NCCc2c[nH]c3ccccc23)CC1`, the IC50 in the test on BV-2 [1] worked out at 49.7 µM; with HT-22, 92.7 µM; against Acetylcholinesterase [2], 66 µM; on Cholinesterase [3], 5.14 µM.

The values are drawn from ChEMBL document CHEMBL5042497, “Design, synthesis, and biological evaluation of carbamate derivatives of N-salicyloyl tryptamine as multifunctional agents for the treatment of Alzheimer's disease” (Eur J Med Chem, 2022).
